Where two headings read alike, the source gives them in different places.

The test concerns microbes.

Regarding `OO` [hydrogen peroxide], the microbes eliminated by setting is: (3% hydrogen peroxide together with radiation of a wavelength between 300 and 600 nanometers) 99.999%; (3% solution of hydrogen peroxide alone) “approximately 30%”.

Values taken from patent US11007554B2, “Method, system and device for reducing microbial concentration and/or biofilm formation” (EMODs Technology, L.L.C., priority 2018, dated 2021).
